Measured values as given in US9452990B2, “Complement pathway modulators and uses thereof” (NOVARTIS AG, priority 2012, dated 2016).
Structures can show the parent of a compound that is named as a salt.

target: human complement factor B (CVF-Bb complex) (Homo sapiens (Human), UniProt P00751); test: Human Complement Factor B ELISA Assay; assay type: biochemical; details: not given
Method: Human Complement Factor B ELISA Assay
CVF-Bb complex prepared from purified cobra venom factor (1 μM), recombinant human complement factor B (expressed in drosophila cells and purified using standard methods) and human complement factor D (expressed in E. Coli, refolded and purified using standard methods). CVF-Bb complex at 3 nM concentration was incubated with test compound at various concentrations for 1 hour at room temperature in PBS pH 7.4 containing 10 mM MgCl2 and 0.05% (w/v) CHAPS. Human complement C3 substrate purified from plasma was added to a final concentration of 1 μM. After 1 hour incubation at room temperature, the enzyme reaction was stopped by addition of a cocktail of concentrated pan-protease inhibitors. The product of the reaction, C3a, was quantified by means of an enzyme-linked-immunosorbent assay. IC50 values were calculated from percentage of inhibition of CVF-Bb activity as a function of test compound concentration.

Compared with `COc1cc2c(N)nc(N3CCN(C(=O)C[C@@H](N)c4ccc(C#N)cc4)CC3)nc2c(F)c1OC` [Example 44, 4-{(R)-1-Amino-3-[4-(4-amino-8-fluoro-6,7-dimethoxy-quinazolin-2-yl)piperazin-1-yl]-3-oxo-propyl}-benzonitrile hydrochloride], `COc1cc2c(N)nc(N3CCN(C(=O)C[C@@H](N)c4ccc(C(F)F)cc4)CC3)nc2c(F)c1OC` [Example 53, (R)-3-Amino-1-[4-(4-amino-8-fluoro-6,7-dimethoxy-quinazolin-2-yl)piperazin-1-yl]-3-(4-difluoromethyl-phenyl)-propan-1-one hydrochloride] is 5-fold higher in IC50: 10 nM for the first, 50 nM for the second. The first is the more potent here.

Compared with `COc1cc2c(N)nc(N3CCN(C(=O)C[C@@H](N)c4ccco4)CC3)nc2c(F)c1OC` [Example 34, (R)-3-Amino-1-[4-(4-amino-8-fluoro-6,7-dimethoxy-quinazolin-2-yl)-piperazin-1-yl]-3-furan-2-yl-propan-1-one hydrochloride], `COc1cc2c(N)nc(N3CCN(C(=O)C[C@@H](N)c4ccc(F)c(F)c4)CC3)nc2c(F)c1OC` [Example 51, (R)-3-Amino-1-[4-(4-amino-8-fluoro-6,7-dimethoxy-quinazolin-2-yl)piperazin-1-yl]-3-(3,4-difluoro-phenyl)-propan-1-one hydrochloride] is 2-fold higher in IC50: 90 nM for the first, 180 nM for the second.

`CC[C@H]1CN(C(=O)C[C@@H](N)c2ccc(C#N)cc2)CCN1c1nc(N)c2cc(OC)c(OC)c(F)c2n1` [Example 64, 4-{(R)-1-Amino-3-[(S)-4-(4-amino-8-fluoro-6,7-dimethoxy-quinazolin-2-yl)-3-ethyl-piperazin-1-yl]-3-oxo-propyl}-benzonitrile hydrochloride] gave an IC50 of 7 nM.

same assay, conditions: CVF-Bb complex 3 nM, 1 hour preincubation with compound at room temperature, human C3 substrate 1 μM, C3a quantified by ELISA; read-out: Factor B IC50

Going from `CCN[C@H](CC(=O)N1CCN(c2nc(N)c3cc(OC)c(OC)c(F)c3n2)CC1)c1ccc(F)cc1` [Example 84, (R)-1-[4-(4-Amino-8-fluoro-6,7-dimethoxy-quinazolin-2-yl)-piperazin-1-yl]-3-ethylamino-3-(4-fluoro-phenyl)-propan-1-one] to `CCN[C@H](CC(=O)N1CCN(c2nc(N)c3cc(OC)c(OC)c(F)c3n2)CC1)c1ccc(C#N)cc1` [Example 90, (R)-4-(3-(4-(4-amino-8-fluoro-6,7-dimethoxyquinazolin-2-yl)piperazin-1-yl)-1-(ethylamino)-3-oxopropyl)benzonitrile], the IC50 falls from 6 nM to 1 nM (6-fold). The second is the more potent here.

Compared with `COc1cc2c(N)nc(N3CCN(C(=O)[C@@H]4CCc5ccccc5[C@@H]4N)C[C@@H]3C)nc2c(F)c1OC` [Example 105, [(S)-4-(4-Amino-8-fluoro-6,7-dimethoxy-quinazolin-2-yl)-3-methyl-piperazin-1-yl]-((1R,2R)-1-amino-1,2,3,4-tetrahydro-naphthalen-2-yl)-methanone], `COc1cc2c(N)nc(N3CCN(C(=O)C[C@H]4NCCc5ccccc54)CC3)nc2c(F)c1OC` [Example 127, 1-[4-(4-Amino-8-fluoro-6,7-dimethoxy-quinazolin-2-yl)-piperazin-1-yl]-2-(R)-1,2,3,4-tetrahydro-isoquinolin-1-yl-ethanone] is 5.3-fold lower in IC50: 1070 nM for the first, 200 nM for the second. The second is the more potent here.

Compared with `COc1cc2c(N)nc(N3CCN(C(=O)C[C@@H](N)c4ccccc4)CC3)nc2c(Br)c1OC` [Example 81, (R)-3-amino-1-(4-(4-Amino-8-bromo-6,7-dimethoxyquinazolin-2-yl)piperazin-1-yl)-3-phenylpropan-1-one], `CN[C@H](CC(=O)N1CCN(c2nc(N)c3cc(OC)c(OC)c(F)c3n2)CC1)c1ccccc1` [Example 72, (R)-1-[4-(4-Amino-8-fluoro-6,7-dimethoxy-quinazolin-2-yl)-piperazin-1-yl]-3-methylamino-3-phenyl-propan-1-one] is 2.2-fold lower in IC50: 510 nM for the first, 230 nM for the second.

Compared with `COc1cc2c(N)nc(N3CCN(C(=O)CC4NCCc5cc(F)ccc54)CC3)nc2c(F)c1OC` (stereo not shown) [Example 128, 1-[4-(4-Amino-8-fluoro-6,7-dimethoxy-quinazolin-2-yl)-piperazin-1-yl]-2-(6-fluoro-1,2,3,4-tetrahydro-isoquinolin-1-yl)-ethanone], `COc1cc2c(N)nc(N3CCN(C(=O)C[C@@H]4CCCCN4)CC3)nc2c(F)c1OC` [Example 113, 1-[4-(4-Amino-8-fluoro-6,7-dimethoxy-quinazolin-2-yl)-piperazin-1-yl]-2-(S)-piperidin-2-yl-ethanone] is 1.9-fold higher in IC50: 120 nM for the first, 230 nM for the second. The first is the more potent here.

Going from `CC[C@H]1CN(C(=O)c2cc3cc(C#N)ccc3[nH]2)CCN1c1nc(N)c2cc(OC)c(OC)c(F)c2n1` [Example 25, 2-[(S)-4-(4-Amino-8-fluoro-6,7-dimethoxy-quinazolin-2-yl)-3-ethyl-piperazine-1-carbonyl]-1H-indole-5-carbonitrile] to `CCC[C@H]1CN(C(=O)c2cc3cc(C#N)ccc3[nH]2)CCN1c1nc(N)c2cc(OC)c(OC)c(F)c2n1` [Example 26, 2-[(S)-4-(4-Amino-8-fluoro-6,7-dimethoxy-quinazolin-2-yl)-3-propyl-piperazine-1-carbonyl]-1H-indole-5-carbonitrile], the IC50 rises from 6 nM to 11 nM (1.8-fold).

First: [2H]C([2H])([2H])N[C@H](CC(=O)N1CCN(c2nc(N)c3cc(OC)c(OC)c(F)c3n2)CC1)c1ccccc1 [Example 79, (R)-1-[4-(4-Amino-8-fluoro-6,7-dimethoxy-quinazolin-2-yl)-piperazin-1-yl]-3-d^3-methylamino-3-phenyl-propan-1-one hydrochloride]
Second: COc1cc2c(N)nc(N3CCN(C(=O)C[C@@H](N)c4cccc(C)c4)CC3)nc2c(F)c1OC [Example 40, (R)-3-Amino-1-[4-(4-amino-8-fluoro-6,7-dimethoxy-quinazolin-2-yl)-piperazin-1-yl]-3-m-tolyl-propan-1-one]
The IC50 of the first is 4.4-fold lower: 50 nM for the first, 220 nM for the second. The first is the more potent here.

First: COc1cc2c(N)nc(N3CCN(C(=O)C[C@@H](N)c4ccc(C)cc4)CC3)nc2c(F)c1OC [Example 41, (R)-3-Amino-1-[4-(4-amino-8-fluoro-6,7-dimethoxy-quinazolin-2-yl)-piperazin-1-yl]-3-p-tolyl-propan-1-one]
Second: COc1cc2c(N)nc(N3CCN(C(=O)C[C@H](c4ccc(F)cc4)N(C)C)CC3)nc2c(F)c1OC [Example 86]
The IC50 of the first is 1.8-fold higher: 70 nM for the first, 40 nM for the second.

First: COc1cc2nc(N3CCN(C(=O)/C=C/C4CC4)CC3)nc(N)c2c(Cl)c1OC [Example 14, (E)-1-(4-(4-Amino-5-chloro-6,7-dimethoxyquinazolin-2-yl)piperazin-1-yl)-3-cyclopropylprop-2-en-1-one]
Second: COc1cc2c(N)nc(N3CCN(C(=O)/C=C/C4CC4)CC3)nc2c(Br)c1OC [Example 15, (E)-1-(4-(4-Amino-8-bromo-6,7-dimethoxyquinazolin-2-yl)piperazin-1-yl)-3-cyclopropylprop-2-en-1-one]
The IC50 of the first is 2.6-fold higher: 3290 nM for the first, 1280 nM for the second. The second is the more potent here.

First: CCC[C@H]1CN(C(=O)c2cc3cc(F)ccc3[nH]2)CCN1c1nc(N)c2cc(OC)c(OC)c(F)c2n1 [Example 27, [(S)-4-(4-Amino-8-fluoro-6,7-dimethoxy-quinazolin-2-yl)-3-propyl-piperazin-1-yl]-(5-fluoro-1H-indol-2-yl)-methanone]
Second: COc1cc2c(N)nc(N3CCN(C(=O)c4cc5cc(O)ccc5[nH]4)CC3)nc2c(F)c1OC [Example 19, [4-(4-Amino-8-fluoro-6,7-dimethoxy-quinazolin-2-yl)-piperazin-1-yl]-(5-hydroxy-1H-indol-2-yl)-methanone]
The IC50 of the first is 3.5-fold higher: 280 nM for the first, 80 nM for the second.

First: COc1cc2c(N)nc(N3[C@H](C)CN(C(=O)C[C@@H](NC(C)C)c4ccc(C#N)cc4)C[C@@H]3C)nc2c(F)c1OC [Example 97, 4-((R)-3-((3R,5S)-4-(4-amino-8-fluoro-6,7-dimethoxyquinazolin-2-yl)-3,5-dimethylpiperazin-1-yl)-1-(isopropylamino)-3-oxopropyl)benzonitrile]
Second: COc1cc2c(N)nc(N3CCN(C(=O)C[C@@H](NCC4(C)COC4)c4ccc(C#N)cc4)CC3)nc2c(F)c1OC [Example 102]
The IC50 of the first is 11-fold higher: 11 nM for the first, 1 nM for the second. The second is the more potent here.

Compared with `C#CC[C@H](N)CC(=O)N1CCN(c2nc(N)c3cc(OC)c(OC)c(F)c3n2)CC1` [Example 31, (S)-3-Amino-1-[4-(4-amino-8-fluoro-6,7-dimethoxy-quinazolin-2-yl)-piperazin-1-yl]-hex-5-yn-1-one], `COc1cc2c(N)nc(N3CCN(C(=O)C[C@@H](N)CC(C)C)CC3)nc2c(F)c1OC` [Example 33, (S)-3-Amino-1-[4-(4-amino-8-fluoro-6,7-dimethoxy-quinazolin-2-yl)-piperazin-1-yl]-5-methyl-hexan-1-one] is 1.5-fold lower in IC50: 1040 nM for the first, 680 nM for the second.

First: COCCOc1c(OC)cc2c(N)nc(N3CCN(C(=O)C[C@@H](N)c4ccc(C#N)cc4)CC3)nc2c1F [Example 70, 4-((R)-1-Amino-3-{4-[4-amino-8-fluoro-6-methoxy-7-(2-methoxy-ethoxy)-quinazolin-2-yl]-piperazin-1-yl}-3-oxo-propyl)benzonitrile]
Second: COc1cc2nc(N3CCN(C(=O)C[C@@H](N)c4ccc(F)cc4)CC3)nc(N)c2c(F)c1OC [Example 83, (R)-3-Amino-1-[4-(4-amino-5-fluoro-6,7-dimethoxy-quinazolin-2-yl)-piperazin-1-yl]-3-(4-fluoro-phenyl)-propan-1-one]
The IC50 of the first is 3.7-fold higher: 110 nM for the first, 30 nM for the second. The second is the more potent here.

Compared with `COc1cc2c(N)nc(N3CCN(C(=O)C[C@@H](NCC4CC4)c4ccsc4)CC3)nc2c(F)c1OC` [Example 93, (R)-1-(4-(4-amino-8-fluoro-6,7-dimethoxyquinazolin-2-yl)piperazin-1-yl)-3-(cyclopropylmethylamino)-3-(thiophen-3-yl)propan-1-one], `COc1cc2c(N)nc(N3CCN(C(=O)c4cc5ccccc5[nH]4)CC3)nc2c(F)c1OC` [Example 17, [4-(4-Amino-8-fluoro-6,7-dimethoxy-quinazolin-2-yl)-piperazin-1-yl]-(1H-indol-2-yl)-methanone] is 85-fold higher in IC50: 4 nM for the first, 340 nM for the second.
